One block for each molecule: values may come before it.
Legend:
[1] = test system: CDAA/HFD fed mice; assay: Mouse CDAA/HFD model of liver fibrosis; type: in vivo
Method: Mice are fed a choline deficient diet supplemented with 0.1% methionine and 60% kCal fat (CDAA/HFD) for 12-14 weeks. Mice receive 1, 3, 10, or 30 mpk of autotaxin inhibitor test compound or vehicle starting at the beginning of week 6 after feeding (therapeutically). The following liver enzymes are measured weekly: aspartate transaminase, alkaline phosphatase and bilirubin. At the end of the study, mice are sacrificed and the liver harvested and frozen at −80° C. for the biochemical analysis of liver fibrosis or fixed in neutral-buffered formalin for histological assessment of liver fibrosis. For the biochemical assessment of liver fibrosis, liver tissue homogenates are analyzed for collagen concentration using a hydroxyproline assay. For the histological assessment of liver fibrosis, fixed liver tissue is stained with Picrosirius Red (PSR) stain and severity of liver fibrosis scored using light microscopy. After qualitative scoring of liver fibrosis, quantitation of fibrosis was determined using whole slide images captured at 20× magnification and calculating the percentage of the liver section that was PSR-positive using Indica Labs' Halo® area quantification image analysis software.

[2] = test system: C57B16/J male mice fed a high fat diet; assay: Glucose tolerance in mice fed a high fat diet; type: in vivo, mouse; conditions: 15 mg/kg twice daily for two days prior to sampling and once on the day of sampling
Method: C57B16/J male mice are fed a normal diet until 6-10 weeks of age. […] For determination of blood glucose, mice are administered test compound orally in 0.5% methocel once or twice daily for several days prior to the glucose challenge. On the day of the glucose tolerance test (GTT) mice are fasted for 6-8 hours and a last dose of test compound administered orally 1-3 hours before the intraperitoneal (i.p.) injection of 1 g/kg D-glucose (Sigma). Blood from the tail vein is sampled before the glucose load (baseline glucose) and every 15-30 min over the next 120 min after the glucose challenge to monitor blood glucose concentration. Blood glucose is quantified using a glucose meter (Accu-Chek, Roche Diagnostics or AlphaTRAK, Abbott Animal Health) and plotted vs. time. Total blood glucose area under the curve (AUC) after the i.p. glucose challenge is calculated from the time plot using GraphPad Prism6.

[3] = molecular target: ENPP7 (Homo sapiens (Human), UniProt Q6UWV6); assay: In vitro ENPP7 inhibition assay; type: biochemical
[4] = molecular target: ENPP3 (Homo sapiens (Human), UniProt O14638); assay: In vitro ENPP3 inhibition assay; type: biochemical
[5] = molecular target: ENPP1 (Homo sapiens (Human), UniProt P22413); assay: In vitro ENPP1 inhibition assay; type: biochemical
[6] = test system: Female C57BL/6 mice, DSS-induced colitis; assay: Mouse DSS-induced chronic colitis model; type: in vivo; conditions: compared to vehicle
Method: Autotaxin inhibitors are dosed at 30, 60 or 100 mpk PO once or twice daily from Day 0 to 63. For a positive control, Cyclosporin A (CsA) is dosed at 25 mpk on Days 1-7, 22-28, and 43-49. Mouse body weight, stool consistency, bleeding and overall Disease Activity Index (DAI) is recorded daily. After 64 days, mouse colons are removed and their length and weights recorded. Colonic sections are stained with hematoxylin and eosin stain (H&E stain) and scored based on inflammatory cell infiltration and tissue damage. Colonic sections are also stained with trichrome and scored for fibrosis.

[7] = molecular target: ENPP6 (Homo sapiens (Human), UniProt Q6UWR7); assay: In vitro ENPP6 inhibition assay; type: biochemical
[8] = test system: MDA-MB-435S human melanoma line; assay: cells; conditions: read-out: IC50 cell migration
Method: The day before the assay, cells are serum-starved overnight in media containing 0.1-0.2% fatty-acid-free BSA. On the day of the assay, the conditioned media is removed from the cells, centrifuged for clarification and set aside. The cells are then harvested by scraping, counted, and pelleted by centrifugation. […] The assays are performed in duplicate using the Neuroprobe 96-well chemotaxis system with 8 m pore size and fibronectin-coated filters. 152 μL cells are added to 8 μL test autotaxin inhibitor compound and incubated for 15 min at 37° C. […] The filters are incubated at 37° C. for 1-24 hours and non-migrated cells removed from the top of the filter by rinsing with PBS and scraping. The filter is air dried then stained before reading the absorbance at 580 nm.

[9] = test system: dog; assay: Dog liver toxicity study; type: in vivo
Method: In some embodiments, liver toxicity can be assessed in suitable in vivo assays. In some embodiments, liver toxicity is assessed by monitoring any increases in the levels of liver markers ALT, AST, AlkP and bilirubin.

[10] = test system: Male Wistar rats, DNBS-induced colitis; assay: Rat DNBS-induced acute colitis model; type: in vivo
Method: Male Wistar rats weighing 150-160 g are intracolonically administered 0.5 ml of 50 mg/ml DNBS in 30% ethanol on Day 1 or vehicle control. Autotaxin inhibitors are dosed at 5 mpk in 0.5% MC once daily from Day 0 to Day 6. Sulfasalazine is dosed at 300 mpk in 0.5% CMC-Na from Day 1 to Day 7. The rats are monitored for body weight and stool consistency daily. At study termination, colon length, colon weight, ulcer area and Masson's trichrome staining are assessed.

[11] = molecular target: human autotaxin (Homo sapiens (Human), UniProt Q13822); assay: Human autotaxin assay; type: biochemical; conditions: concentrated conditioned media from Hep3B cells; LPC substrate, choline release
[12] = 5 mpk once daily, DNBS acute colitis
[13] = 5 mpk once daily, similar to sulfasalazine

Chain of ENPP6 (Q6UWR7 23-440, species assumed): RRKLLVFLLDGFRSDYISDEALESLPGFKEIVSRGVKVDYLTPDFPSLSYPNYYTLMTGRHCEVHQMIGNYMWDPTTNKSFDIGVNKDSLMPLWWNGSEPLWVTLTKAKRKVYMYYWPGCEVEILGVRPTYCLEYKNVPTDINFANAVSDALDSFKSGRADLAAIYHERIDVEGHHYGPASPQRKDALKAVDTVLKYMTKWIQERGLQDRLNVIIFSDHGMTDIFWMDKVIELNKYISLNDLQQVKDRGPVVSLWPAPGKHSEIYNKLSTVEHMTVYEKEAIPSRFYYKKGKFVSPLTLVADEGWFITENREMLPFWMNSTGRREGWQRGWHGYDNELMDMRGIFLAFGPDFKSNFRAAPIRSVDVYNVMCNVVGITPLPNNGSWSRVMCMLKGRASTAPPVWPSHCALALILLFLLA
Chain of ENPP3 (O14638 whole entry, species assumed): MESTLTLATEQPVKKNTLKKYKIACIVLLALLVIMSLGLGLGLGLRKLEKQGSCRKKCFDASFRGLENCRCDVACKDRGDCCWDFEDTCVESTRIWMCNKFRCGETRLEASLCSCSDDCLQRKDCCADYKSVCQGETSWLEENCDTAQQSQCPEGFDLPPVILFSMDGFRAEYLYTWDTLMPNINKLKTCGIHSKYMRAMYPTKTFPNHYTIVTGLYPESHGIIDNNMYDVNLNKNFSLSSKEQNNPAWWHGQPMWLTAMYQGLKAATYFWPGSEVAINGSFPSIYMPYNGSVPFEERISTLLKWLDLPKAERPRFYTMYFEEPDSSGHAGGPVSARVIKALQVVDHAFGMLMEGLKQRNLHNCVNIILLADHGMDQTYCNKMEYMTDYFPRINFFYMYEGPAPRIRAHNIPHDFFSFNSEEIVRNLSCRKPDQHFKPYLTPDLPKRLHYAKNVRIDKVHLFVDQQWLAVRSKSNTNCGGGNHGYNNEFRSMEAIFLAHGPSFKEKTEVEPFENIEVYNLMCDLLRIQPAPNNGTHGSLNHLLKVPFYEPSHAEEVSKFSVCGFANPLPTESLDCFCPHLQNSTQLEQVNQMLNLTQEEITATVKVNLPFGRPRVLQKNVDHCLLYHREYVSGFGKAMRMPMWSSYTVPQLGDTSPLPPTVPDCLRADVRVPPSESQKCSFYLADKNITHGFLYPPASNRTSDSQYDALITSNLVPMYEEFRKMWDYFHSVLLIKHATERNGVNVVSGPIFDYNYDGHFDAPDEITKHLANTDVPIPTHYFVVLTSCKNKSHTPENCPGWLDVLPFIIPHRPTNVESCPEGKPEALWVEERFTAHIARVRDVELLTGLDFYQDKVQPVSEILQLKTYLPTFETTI
Chain of ENPP1 (P22413 whole entry, species assumed): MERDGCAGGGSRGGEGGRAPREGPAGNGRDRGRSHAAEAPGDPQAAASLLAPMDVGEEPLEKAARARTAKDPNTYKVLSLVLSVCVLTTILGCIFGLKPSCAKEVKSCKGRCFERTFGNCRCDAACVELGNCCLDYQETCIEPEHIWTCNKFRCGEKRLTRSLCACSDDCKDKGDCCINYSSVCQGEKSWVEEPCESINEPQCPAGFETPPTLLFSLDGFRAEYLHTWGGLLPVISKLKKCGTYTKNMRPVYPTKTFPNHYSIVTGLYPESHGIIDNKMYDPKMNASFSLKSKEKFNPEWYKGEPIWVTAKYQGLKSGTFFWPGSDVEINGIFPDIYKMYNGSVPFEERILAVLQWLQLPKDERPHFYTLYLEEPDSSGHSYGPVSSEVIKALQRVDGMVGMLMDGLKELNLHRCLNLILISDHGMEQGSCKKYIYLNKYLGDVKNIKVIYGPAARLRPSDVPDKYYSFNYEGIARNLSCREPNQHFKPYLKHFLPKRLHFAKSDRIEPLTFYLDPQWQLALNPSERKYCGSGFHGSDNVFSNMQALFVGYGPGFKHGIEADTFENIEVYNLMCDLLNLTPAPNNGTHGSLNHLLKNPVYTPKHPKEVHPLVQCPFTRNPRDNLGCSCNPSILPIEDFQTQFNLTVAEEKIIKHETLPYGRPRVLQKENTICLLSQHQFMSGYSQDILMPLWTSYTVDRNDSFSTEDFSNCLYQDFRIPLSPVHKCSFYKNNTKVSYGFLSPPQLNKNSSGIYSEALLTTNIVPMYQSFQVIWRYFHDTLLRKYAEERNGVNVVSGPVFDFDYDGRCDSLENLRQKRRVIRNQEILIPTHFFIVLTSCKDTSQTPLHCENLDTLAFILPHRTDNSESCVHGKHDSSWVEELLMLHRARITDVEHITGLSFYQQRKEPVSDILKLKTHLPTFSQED
Chain of ENPP7 (Q6UWV6 22-458, species assumed): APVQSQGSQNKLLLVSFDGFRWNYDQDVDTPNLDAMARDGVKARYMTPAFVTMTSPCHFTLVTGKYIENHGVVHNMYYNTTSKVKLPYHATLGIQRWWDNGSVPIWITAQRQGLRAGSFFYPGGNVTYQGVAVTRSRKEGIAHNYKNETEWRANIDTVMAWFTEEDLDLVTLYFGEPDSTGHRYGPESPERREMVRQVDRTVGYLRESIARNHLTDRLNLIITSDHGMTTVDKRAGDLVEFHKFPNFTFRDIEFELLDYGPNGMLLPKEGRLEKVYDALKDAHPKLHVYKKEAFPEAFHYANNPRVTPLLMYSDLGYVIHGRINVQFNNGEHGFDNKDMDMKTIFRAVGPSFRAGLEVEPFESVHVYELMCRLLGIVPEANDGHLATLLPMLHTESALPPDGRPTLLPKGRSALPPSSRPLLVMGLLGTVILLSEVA

IC50 [11]: < 0.5 µM
SMILES: CCn1cc(-n2c(Cl)c(Sc3cccc(C(=O)O)n3)c3ccc(Cl)c(F)c32)cn1 [Compound G, 6-((2,6-dichloro-1-(1-ethyl-1H-pyrazol-4-yl)-7-fluoro-1H-indol-3-yl)thio)picolinic acid]

IC50 [11]: < 0.5 µM
SMILES: CCCn1cc(-n2c(Cl)c(Sc3cccc(CC(=O)O)c3F)c3ccc(Cl)c(F)c32)cn1 [Compound H, 2-(3-((2,6-dichloro-7-fluoro-1-(1-propyl-1H-pyrazol-4-yl)-1H-indol-3-yl)thio)-2-fluorophenyl)acetic acid]

IC50 [11]: < 0.5 µM
SMILES: CCn1cc(-n2c(Cl)c(Sc3cccc(CC(=O)O)c3F)c3ccc(Cl)c(F)c32)cn1 [Compound I, 2-(3-((2,6-dichloro-1-(1-ethyl-1H-pyrazol-4-yl)-7-fluoro-1H-indol-3-yl)thio)-2-fluorophenyl)acetic acid]

Further lines, the molecule ahead of its results:

SMILES: CCCn1cc(-n2c(Cl)c(Sc3cccc(C(=O)O)c3F)c3ccc(Cl)c(F)c32)cn1 [Compound B, 3-((2,6-dichloro-7-fluoro-1-(1-propyl-1H-pyrazol-4-yl)-1H-indol-3-yl)thio)-2-fluorobenzoic acid]
decrease in % PSR positive area ([1]; 10 mpk, liver, CDAA/HFD mice): approximately 35%
liver fibrosis ([1]; 10 mpk, therapeutic dosing, CDAA/HFD mice): significantly reduced
hepatic fibrosis (FIG. 4, percent PSR positive area) ([1]; dosed therapeutically, mouse CDAA/HFD model): attenuate
baseline glucose [2]: decreased
total blood glucose AUC ([2]; i.p. glucose challenge): decreased
IC50 [3]: > 10 µM
IC50 [4]: > 10 µM
IC50 [5]: > 10 µM
colon length [6]: significant increase
colon length, longer than vehicle [6]: at least 30%
IC50 [7]: > 10 µM
IC50 [8]: 0.015 µM
liver markers (ALT, AST, AlkP and bilirubin) ([9]; dog liver toxicity study): did not exhibit the same effects
increases in liver markers ALT, AST, AlkP and bilirubin ([9]; dosed at 100 mpk for 5 days): no increases
effect on colitis by reducing ulcer area ([10]; 5 mpk once daily Day 0 to Day 6, DNBS rats): positive effect
body weight loss [10, 12]: no significant effect
stool consistency [10, 12]: no significant effect
colon weight [10, 13]: reduced
ulcer area [10, 13]: reduced

SMILES: O=C1C2Cc3c(n(Cc4ccc(F)cc4)c4ccccc34)CN2C(=O)N1CCC1CCNCC1 (centres unmarked) [Compound C, 4-(2-(6-(4-fluorobenzyl)-1,3-dioxo-5,6,11a-tetrahydro-1H-imidazo[1′,5′:1,6]pyrido[3,4-b]indol-2(3H, 5H, 6H)-yl)ethyl)piperidin-1-ium chloride]
IC50 [11]: < 0.5 µM

SMILES: O=C1C2Cc3c(n(Cc4ccc(F)cc4)c4ccccc34)CN2C(=O)N1CCN1CCNCC1 (centres unmarked) [Compound D, 4-(2-(6-(4-fluorobenzyl)-1,3-dioxo-5,6,11a-tetrahydro-1H-imidazo[1′,5′:1,6]pyrido[3,4-b]indol-2(3H, 5H, 6H)-yl)ethyl)piperazin-1-ium chloride]
IC50 [11]: < 0.5 µM

SMILES: CCn1cc(-n2c(Cl)c(Sc3cccc(C(=O)O)c3F)c3ccc(Cl)c(F)c32)cn1 [Compound E, 3-((2,6-dichloro-1-(1-ethyl-1H-pyrazol-4-yl)-7-fluoro-1H-indol-3-yl)thio)-2-fluorobenzoic acid]
IC50 [11]: < 0.5 µM

SMILES: CCCn1cc(-n2c(Cl)c(Sc3cccc(C(=O)O)n3)c3ccc(Cl)c(F)c32)cn1 [Compound F, 6-((2,6-dichloro-7-fluoro-1-(1-propyl-1H-pyrazol-4-yl)-1H-indol-3-yl)thio)picolinic acid]
IC50 [11]: < 0.5 µM

From patent publication US12458627B2, “Autotaxin inhibitors and uses thereof” (DF 2024 IP Acquisition, LLC, priority 2015, dated 2025)
